Where two headings read alike, the source gives them in different places. Bridge positions count the residues as written; N and C are the ends. Square brackets hold non-standard residues; d marks the D form. Peptide text beside a SMILES is read from it.
Assays:
Format in all cases: in vivo
insulin = assay: Arginine-stimulated insulin in Nembutal-treated rats, radioimmunoassay; set-up: effect on insulin levels: dose or concentration left out as unconfirmed; details: for Insulin: albino male rats
Description: (§1) The biological activity of the peptides of Examples 2 and 4 were determined by the following procedure:
(§2) Albino male rats are administered Nembutal intraperitoneally at a dose of 50 milligrams per kilogram. Fifteen minutes later a subcutaneous injection of the test compound of physiological saline is administered. Ten minutes later 0.5 milliliters of arginine (300 milligrams per milliliter, pH 7.2) is injected into the heart. Five minutes after receipt of the arginine the rats are decapitated and blood is collected into trasylol-EDTA. An appropriate aliquot is assayed for growth hormone (GH), insulin, and glucagon by radioimmunoassay.

growth hormone (GH) = assay: Arginine-stimulated growth hormone (GH) in Nembutal-treated rats, radioimmunoassay; set-up: GH: reference not given here; details: for GH: albino male rats, *p<0.01
Description: as §1, §2

glucagon = assay: Arginine-stimulated glucagon in Nembutal-treated rats, radioimmunoassay; details: for Glucagon: albino male rats, *p<0.01
Description: as §1, §2

GH secretion = assay: Duration of effect on GH secretion in rats treated with Nembutal; set-up: duration of significant inhibition of GH: dose or concentration left out as unconfirmed
Description: The peptides of Examples 2 and 4 were also tested for duration of their effect on GH secretion in rats treated with Nembutal.

[1] = dose 200 ug/kg subcutaneous, blood 15 min after compound, 5 min after arginine, *p<0.01
[2] = dose 200 ug/kg subcutaneous, blood 15 min after compound, 5 min after arginine

Row | Molecule | Insulin (insulin; dose 50 ug/kg subcutaneous) [μU/ml.] | Insulin (insulin; [1]) [μU/ml.] | effect on insulin levels (insulin; dose of 50) | GH (growth hormone (GH); dose 50 ug/kg subcutaneous) [ng/mL] | GH (growth hormone (GH); [2]) [ng/mL] | reducing growth hormone (growth hormone (GH); dose of 50 mg/kg) | reducing glucagon (glucagon) | Glucagon (glucagon; dose 50 ug/kg subcutaneous) [pg/mL] | Glucagon (glucagon; [2]) [pg/mL] | inhibition of GH at 2 and 4 hours (GH secretion; at 2 and 4 hours) | Insulin (insulin; dose 40 ug/kg subcutaneous) [μU/ml.] | effect on insulin levels (insulin; dose of 40) | GH (growth hormone (GH); dose 40 ug/kg subcutaneous) [ng/mL] | reducing growth hormone (growth hormone (GH); dose of 40 mg/kg) | Glucagon (glucagon; dose 40 ug/kg subcutaneous) [pg/mL] | reducing glucagon (glucagon; dose of 40 mg/kg) | duration of significant inhibition of GH (GH secretion; (S.C.))
1 | C[C@@H](O)[C@@H]1NC(=O)[C@H](Cc2ccccc2)NC(=O)[C@H]([C@@H](C)O)NC(=O)[C@H](CCCCN)NC(=O)[C@@H](Cc2c[nH]c3ccccc23)NC(=O)[C@H](Cc2ccccc2)NC(=O)[C@H](Cc2ccccc2)NC(=O)[C@H](CCC(=O)O)NC(=O)[C@H](Cc2c[nH]cn2)NC(=O)[C@@H](N)CSSC[C@@H](C(=O)O)NC(=O)[C@H](CO)NC1=O [Example 4, L-Cysteinyl-L-histidyl-L-glutamyl-L-phenylalanyl-L-phenylalanyl-D-tryptophyl-L-lysyl-L-threonyl-L-phenylalanyl-L-threonyl-L-seryl-L-cysteine cyclic (1-12) disulfide] (H-CHEFF[dW]KTFTSC-OH; disulfide 1-12) | 322 ± 40 | 205 ± 36 | without materially affecting insulin levels | 84 ± 17 | 107 ± 29 | effective agents for reducing growth hormone | effective agents for reducing growth hormone and glucagon | 10 ± 4 | 4 ± 2 | no significant inhibition of GH |  |  |  |  |  |  | 
2 | C[C@@H](O)[C@@H]1NC(=O)[C@H](Cc2ccccc2)NC(=O)[C@H]([C@@H](C)O)NC(=O)[C@H](CCCCN)NC(=O)[C@@H](Cc2c[nH]c3ccccc23)NC(=O)[C@H](Cc2ccccc2)NC(=O)[C@H](Cc2ccccc2)NC(=O)[C@H](CCC(=O)O)NC(=O)[C@H](CCCNC(=N)N)NC(=O)[C@@H](N)CSSC[C@@H](C(=O)O)NC(=O)[C@H](CO)NC1=O [Example 2, L-Cysteinyl-L-arginyl-L-glutamyl-L-phenylalanyl-L-phenylalanyl-D-tryptophyl-L-lysyl-L-threonyl-L-phenylalanyl-L-threonyl-L-seryl-L-cysteine cyclic (1-12) disulfide] (H-CREFF[dW]KTFTSC-OH; disulfide 1-12) |  | 115 ± 16 |  |  | 42 ± 6 |  |  |  | 1.5 ± 1 |  | 158 ± 57 | without materially affecting insulin levels | 28 ± 5 | effective agents for reducing growth hormone | 12 ± 2 | effective agents for reducing growth hormone and glucagon | 
3 | tert-Butyloxycarbonyl-S-p-methoxybenzyl-L-cysteinyl-N^gn -tosyl-L-arginyl-γ-benzyl-L-glutamyl-L-phenylalanyl-L-phenylalanyl-D-tryptophyl-N^ε -2-chloro-benzyloxycarbonyl-L-lysyl-O-benzyl-L-threonyl-L-phenylalanyl-O-benzyl-L-threonyl-O-benzyl-L-seryl-S-p-methoxybenzyl-L-cysteine hydroxymethyl-polystyrene ester [Example 1] |  |  |  |  |  |  |  |  |  |  |  |  |  |  |  |  | at least 4 hours

— patent publication US4190575A, “Polypeptides related to somatostatin” (American Home Products Corporation, priority 1977, dated 1980)
